Results: patent US20240018146A1, “COMPOSITIONS AND METHODS OF USING THE SAME FOR TREATMENT OF NEURODEGENERATIVE AND MITOCHONDRIAL DISEASE” (MITOKININ, INC., priority 2020, published 2024)
Converted amounts (≈) assume the structure as drawn. “Also recorded” adds a separate entry of the source. Read-outs that look alike come from different tables or passages of the source.

Assays:
HeLa MKYP cells [1] = test: Human mitophagy assay (HeLa mKeima assay, FACS); format: cell-based; conditions: for percentage of cells undergoing mitophagy: HeLa cells expressing mtKeima, FCCP and Oligomycin, FACS, FIG. 28; for EC50: Homo sapiens, HeLa
Outline: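 HeLa cells carrying the pH-sensitive mtKeima tag incubated 16 h with compound at several concentrations, then 1 uM FCCP/oligomycin for 6 h. FACS detects mitochondria in lysosomes through the Keima emission shift, quantified as percentage of cells in mitophagy.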

HeLa MKYP cells [2] = test: Cell death measured by DAPI staining, with 1 μM FCCP/oligomycin or no toxin (no FO); format: cell-based; conditions: for E105 death at 8.3 μM (no FO): 8.3 μM compound; for E104 death at 25 μM (no FO) / Max cell death at 25 μM compound, 1 uM FO (%) / Cell death at 25 μM (no FO) (%): 25 μM compound
Outline: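 HeLa MKYP cells were treated with compounds alongside 1 μM FCCP/oligomycin or no toxin for 6 or 6.5 h. Cell death was scored by DAPI staining, with H2O2 treatment as the death control.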

[3] = Inspection of crystallization and round cells; format: physicochemical; parameters: key: 1=yes crystals; 0=no crystals
Procedure: 5. Inspection of Crystallization and Round Cells
Briefly, the Hela MKYP (Mito-Keima/YFP-Parkin) cells were seeded at 10K cells/well. EP/MTK compounds were added at seeding (cells were still in suspension). The cells were incubated with the EP/MTK compounds for 16 hours, then 1 μM FCCP/oligomycin was added for 6 hours. Prior to harvesting, cells were scored by eye under 20× magnification for the presence or absence of crystalline or aggregated compound, or round cells.

pS129 α-syn = test: Preformed fibril (PFF) model in primary neuron culture, pS129 α-syn; format: cell-based; conditions: for pathological α-synuclein levels in primary neurons: FIG. 8A-C; for pS129 α-syn (250-12) in primary neuron culture / pS129 α-syn (monomer) in primary neuron culture / pS129 α-syn in primary neuron culture: increasing doses
Procedure: 4. Preformed Fibril Model
(§1) Mouse and human alpha-synuclein monomers have been sourced commercially, then pre-formed fibrils have been generated as per the detailed protocol provided by the MJFF. For in vitro experiments primary hippocampal neurons isolated from P0 pups were grown for 7 days after which PFFs at 5 ug/ml were introduced Pre-formed fibrils will be introduced via stereotactic injection into the striatum of wt (C57BL/6J, Jax #000664) and transgenic A53T mice (B6;C3-Tg(Prnp-SNCA*A53T)83Vle/J, Jax #004479). Cohorts of drug-treated (oral gavage) and untreated animals will then be allowed to age for up to 6 months, at which point they will be sacrificed and perfused. Brains will be removed and fixed, then sectioned for analysis. We anticipate that untreated A53T animals will show significant spreading of aggregated alpha-synuclein pathology and pS129 staining, as well as some possible neurodegeneration; wt animals are also expected to show pS129 synuclein staining and synuclein aggregation, albeit less than that seen in the A53T background.

Parkin = Parkin recruitment to mitochondria (HeLa cells expressing YFP-tagged Parkin, longitudinal imaging); format: cell-based, human; conditions: FCCP and Oligomycin, cells with Parkin recruited at 60 minutes, FIG. 29
Procedure: HeLa cells expressing a YFP-tagged Parkin were treated with […] of FCCP and Oligomycin followed by the specified dose of compound, then analyzed by longitudinal imaging. Percentage of cells with Parkin recruited to mitochondria at 60 minutes is shown.

[4] = Mitotoxicity / Mitotox safety margin (therapeutic window); format: cell-based; conditions: for mitotoxicity: FIG. 5-7
Kinetic solubility = format: physicochemical
pathologic (pS129) α-syn = test: In vivo α-syn (PFF) model, pathologic pS129 α-syn in striatum; parameters: species or system mice; conditions: oral BID dosing at 50, 25, 12.5, and 6.25 mg/kg
Procedure: FIG. 9A and FIG. 9B show representative in vivo data of EP-0040180 in an α-syn (PFF) model.
as §1

cleaved caspase-3 = test: Cleaved caspase-3 levels in primary neuron culture; format: cell-based; conditions: compared with toxins
KIM-1 = test: Cisplatin challenge, kidney injury marker (KIM-1) in urine; format: in vivo, mice (C57Bl/6); conditions: 10 mg/kg cisplatin i.p., oral gavage QD, day 3 post-challenge
Procedure: (§2) Mice were provided at least one week of acclimation to the animal facility and group housed. Mice were injected intraperitoneally with 1 mg/ml cisplatin solution (BluePoint Labs) or 10 ml/kg sterile-filtered saline using 29G insulin syringes. Mice were weighed and administered vehicle, 35985 or 40180 by oral gavage per the dosing regimens noted in the figures. Mice were monitored for excessive weight loss and euthanized if moribund.
(§3) 35985 and 40180 are formulated at ten-fold the dosing concentration in NMP (N-methylpyrrolidone) followed by dilution with solutol-15 and water for a final vehicle concentration of 10% NMP/10% solutol-15/80% water.
Urine was collected from scruffed mice (serial collection) or directly from bladder using insulin syringe during harvest (terminal collection). KIM-1 was measured in mouse urine using R&D System's Mouse TIM-1/KIM-1/HAVCR DuoSet ELISA following manufacturer's published protocol.
Referring to FIG. 36, mice (C57Bl/6) were challenged with a single intraperitoneal dose of 10 mg/kg cisplatin or saline and dosed by oral gavage once per day (QD) with 40180.

Gdf15, Tnfrsf12a = test: Cisplatin challenge, kidney expression of mitochondrial-stress related genes (quantitative PCR); format: in vivo, mice (C57Bl/6); conditions: 10 mg/kg cisplatin i.p., oral gavage QD for three days
Procedure: as §2, §3
RNA was isolated from kidney samples using Rneasy Mini kit (Qiagen) according to its product manual. RNA concentration was measured using NanoDrop™ 2000/2000c Spectrophotometers (Thermo Scientific). 50 ng of RNA for each sample was used to generate cDNA. cDNA was synthesized using High-Capacity RNA-to-cDNA™ Kit (Thermo Scientific) according to its product manual. Quantitative PCR was performed using Power SYBR™ Green PCR Master Mix (Applied Biosystems) according to its product manual. The following primers were used to analyze gene expression levels in the kidney: […]
All gene expression levels were normalized to expression levels of beta-actin using ΔΔCt and expressed as fold change relative to cisplatin vehicle treated mice. […]

[5] = mitophagy, 1 μM FCCP/oligomycin, read-out: E100 EC50
[6] = mitophagy, 1 μM FCCP/oligomycin
[7] = 25.0 μM compound, HeLa MKYP culture, 20× magnification
[8] = HeLa mKeima assay, read-out: Mitophagy EC50 (HeLa mKeima assay)
[9] = read-out: Mitophagy induction EC50

| SMILES | E102 max mitophagy, fold over DMSO (HeLa MKYP cells [1]; 1 μM FCCP/oligomycin) [fold over DMSO] | EC50 (HeLa MKYP cells [1]; [5]) [µM] | E101 lowest effective dose (HeLa MKYP cells [1]; [6]) [µM] | E105 death at 8.3 μM (no FO) (HeLa MKYP cells [2]) | E104 death at 25 μM (no FO) (HeLa MKYP cells [2]) | E103 max death with 1 μM FO (HeLa MKYP cells [2]) | visual inspection of crystallization ([3]; 0.1 μM compound) | visual inspection of crystallization ([3]; 0.3 μM compound) | visual inspection of crystallization ([3]; 0.9 μM compound) | visual inspection of crystallization ([3]; 2.8 μM compound) | visual inspection of crystallization ([3]; 8.3 μM compound) | visual inspection of crystallization [3, 7] | EC50 (HeLa MKYP cells [1]; [8]) [µM] | EC50 (HeLa MKYP cells [1]; [9]) [µM] | Max cell death at 25 μM compound, 1 uM FO (%) (HeLa MKYP cells [2]) | Cell death at 25 μM (no FO) (%) (HeLa MKYP cells [2]) | Highest safe dose (cytotoxicity; no FO; safe means DAPI+ <20%) (HeLa MKYP cells [2]) [µM] | Max % death with 1 μM FO (HeLa MKYP cells [2]) [%] | Mitotox safety margin (Therapeutic window) [4] | Mito-Safety Index (highest safe dose/EC50) [4] | other results |
| --- | --- | --- | --- | --- | --- | --- | --- | --- | --- | --- | --- | --- | --- | --- | --- | --- | --- | --- | --- | --- | --- |
| FC(F)(F)c1cc2c(NC3CCCc4ccccc43)ncnc2[nH]1 (single isomer, unassigned) [EP-0035985] | 4.43 | 0.33 | 0.31 | 2.54 | 3.01 | 8.14 | 0 | 0 | 0 | 0 | 0 | 0 |  |  |  |  |  |  |  |  | percentage of cells undergoing mitophagy (HeLa MKYP cells [1]): induce mitophagy in a dose dependent manner; also recorded: dose responsive increase in the percentage of cells undergoing mitophagy; pathological α-synuclein levels in primary neurons (pS129 α-syn): reduce pathological α-synuclein levels; Parkin recruitment to mitochondria (Parkin): accelerate recruitment of Parkin to mitochondria; also recorded: dose responsive increase in the rate of Parkin recruitment to mitochondria |
| FC(F)(F)c1cc2c(N[C@H]3c4ccccc4CC[C@@H]3N3CC4(CCOCC4)C3)ncnc2[nH]1 (single isomer, unassigned) [EP-0038463] | 3.95 | 2.59 | 2.78 | 4.21 | 59.77 | 87.81 | 0 | 0 | 0 | 0 | 0 | 0 | 2.59 | 2.59 | 87.805 | 59.8 | 8.3 | 87.8 | + (+ = <10) | 3.20 | mitotoxicity [4]: low mitotoxicity; Highest safe dose (μM) (mitotox or cytotox) [4]: 8.3 µM; solubility kinetic (Kinetic solubility): 153 µM (≈ 70 µg/mL) |
| FC(F)(F)c1cc2c(N[C@H]3c4ccccc4CC[C@@H]3N3CCOCC3)ncnc2[nH]1 (single isomer, unassigned) [EP-0038098] | 9.78 | 0.22 | 0.10 | 2.59 | 5.29 | 24.02 |  |  |  |  |  |  | 0.22 |  | 24 | 5.29 |  |  | ++++ (++++ = 30<) |  | EC50 (HeLa MKYP cells [1]; text statement referring to Tables 2A and 2B, FIG. 1A-F, read-out: EC50): < 0.3 µM; toxicity (HeLa MKYP cells [2]; text statement referring to Tables 2A and 2B, FIG. 1A-F): less than 10%; solubility kinetic (Kinetic solubility): 14.1 µM (≈ 5.89 µg/mL); pathological α-synuclein levels in primary neurons (pS129 α-syn): reduce pathological α-synuclein levels |
| c1ccc2c(c1)OC[C@H](N1CCOCC1)[C@H]2Nc1ncnc2[nH]c(C3CC3)cc12 (single isomer, unassigned) [EP-0040180] |  |  |  |  |  |  |  |  |  |  |  |  |  | 0.26 |  |  | 25.0 | 10.4 |  | 97.54 | percentage of cells undergoing mitophagy (HeLa MKYP cells [1]): induce mitophagy in a dose dependent manner; also recorded: dose responsive increase in the percentage of cells undergoing mitophagy; Highest safe dose (μM) (mitotox or cytotox) [4]: 25.0 µM; pS129 α-syn (250-12) in primary neuron culture (pS129 α-syn): reduces; pS129 α-syn (monomer) in primary neuron culture (pS129 α-syn): reduces; pS129 α-syn in primary neuron culture (pS129 α-syn): reduces; pathologic (pS129) α-syn (250-12) from the striatum induced by PFF challenge (pathologic (pS129) α-syn): significantly reduces; pathologic (pS129) α-syn (monomer) from the striatum induced by PFF challenge (pathologic (pS129) α-syn): significantly reduces; cleaved caspase-3 levels (cleaved caspase-3): do not significantly alter; Parkin recruitment to mitochondria (Parkin): accelerate recruitment of Parkin to mitochondria; also recorded: dose responsive increase in the rate of Parkin recruitment to mitochondria; KIM-1 (kidney-injury marker 1), urine (KIM-1): dose-dependent rescue of KIM-1; also recorded: reduces KIM-1; expression of mitochondrial-stress related genes Gdf15 and Tnfrsf12a in kidney (Gdf15, Tnfrsf12a): reduced expression of these genes in a dose-responsive manner; also recorded: reduces expression of mitochondrial-stress related genes |
| FC(F)(F)c1cc2c(N[C@H]3c4ccccc4CC[C@@H]3N3C[C@H]4COC[C@H]4C3)ncnc2[nH]1 [EP-0038461] | 5.44 | 0.11 | 0.93 |  |  | 7.97 | 0 | 0 | 0 | 0 | 0 | 1 | 0.11 | 0.1 | 7.97 | 4.31 | 25.0 | 9.7 | +++ (+++ = 20 < x < 30) | 27.53 | EC50 (HeLa MKYP cells [1]; average ± spread, read-out: E100 EC50 (μM) (average)): 0.1 ± 0.01 µM; mitotoxicity [4]: low mitotoxicity; Highest safe dose (μM) (mitotox or cytotox) [4]: 2.8 µM; solubility kinetic (Kinetic solubility): 1.56 µM (≈ 0.692 µg/mL) |
| FC(F)(F)c1cc2c(N[C@H]3c4ccccc4CC[C@@H]3N3C[C@@H]4COC[C@H]4C3)ncnc2[nH]1 (single isomer, unassigned) [EP-0040270] |  |  |  |  |  |  |  |  |  |  |  |  |  |  |  |  |  |  |  |  | pS129 α-syn (250-12) in primary neuron culture (pS129 α-syn): reduces; pS129 α-syn (monomer) in primary neuron culture (pS129 α-syn): reduces; pS129 α-syn in primary neuron culture (pS129 α-syn): reduces; cleaved caspase-3 levels (cleaved caspase-3): increase cleaved caspase-3 levels |
